Patent publication US8796292B2, “Selective antibacterials for clostridium difficile infections” (GLSynthesis Inc., priority 2009, dated 2014)
Converted amounts (≈) assume the structure as drawn. Where two headings read alike, the source gives them in different places.

Legend:
Assay in all cases: agar dilution MIC assay of anaerobic bacteria
[1] = tested on: L. casei; format: cell-based, Lactobacillus casei; details: Lacticaseibacillus casei
Procedure, shortened: (§1)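 Growth inhibition is scored as absence of colony formation on agar containing serial drug dilutions, following CLSI anaerobe guidance. Plates receive 500-1000 CFU and incubate anaerobically at 35° C. for 48 hours.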

[2] = tested on: E. lentum; format: cell-based, Eubacterium lentum
Procedure, shortened: as §1

[3] = tested on: Ba. fragilis; format: cell-based; details: Bacteroides fragilis
Procedure, shortened: as §1

[4] = tested on: L. acidophilus; format: cell-based; details: Lactobacillus acidophilus
Procedure, shortened: as §1

[5] = tested on: Bi. brevi; format: cell-based, Bifidobacterium brevi
Procedure, shortened: as §1

[6] = tested on: C. difficile; format: cell-based, Clostridium difficile; details: Clostridioides difficile, read-out: MIC
Procedure, shortened: as §1

[7] = tested on: Bi. longum; format: cell-based, Bifidobacterium longum
Procedure, shortened: as §1

MIC ([1]; Micromyx Number 1722, Table 1): > 16 mg/L | MIC ([1]; Strain no. 1722 (ATCC strain), Table 3): > 32 mg/L | MIC ([2]; Eggerthella lenta, E. lentum, Micromyx Number 1274, Table 1, read-out: MIC): 0.5 mg/L (≈ 2.92 µM) | MIC ([2]; Eu. Lentum, Strain no. 1274 (ATCC strain), Table 3): 0.5 mg/L (≈ 2.92 µM) | MIC ([3]; B. fragilis, Micromyx Number 0123 (ATCC strain), Table 2): 0.5 mg/L (≈ 2.92 µM) | MIC ([3]; B. fragilis, Strain no. 0123 (ATCC strain), Gram-negative (control), Table 3): 0.5 mg/L (≈ 2.92 µM) | MIC ([3]; Ba. fragilis, Micromyx Number 0123 (ATCC strain), Gram negative, Table 1): 1 mg/L (≈ 5.84 µM) | MIC ([4]; Micromyx Number 0681, Table 1): > 16 mg/L | MIC ([4]; Strain no. 0681, Table 3): > 32 mg/L | MIC ([5]; Bifidobacterium breve, Bi. Breve, Strain no. 3967 (ATCC strain), Table 3): 4 mg/L (≈ 23.4 µM) | MIC ([5]; Bifidobacterium, Bi. brevi, Micromyx Number 3967, Table 1): > 16 mg/L | MIC ([6]; C. diff. Strain no. 18285, Table 4): 2 mg/L (≈ 11.7 µM) | MIC ([6]; C. diff. Strain no. 19265, Table 4): 0.5 mg/L (≈ 2.92 µM) | MIC ([6]; C. diff. Strain no. 19273, Table 4): 0.25 mg/L (≈ 1.46 µM) | MIC ([6]; C. diff. Strain no. 19281, Table 4): 0.5 mg/L (≈ 2.92 µM) | MIC ([6]; C. diff. Strain no. 19291, Table 4): 0.5 mg/L (≈ 2.92 µM) | MIC ([6]; C. diff. Strain no. 19369, Table 4): 0.5 mg/L (≈ 2.92 µM) | MIC ([6]; C. diff. Strain no. 19382, Table 4): 0.5 mg/L (≈ 2.92 µM) | MIC ([6]; C. diff. Strain no. 19540, Table 4): 4 mg/L (≈ 23.4 µM) | MIC ([6]; C. diff. Strain no. 19580, Table 4): 2 mg/L (≈ 11.7 µM) | MIC ([6]; C. diff. Strain no. 19680, Table 4): 4 mg/L (≈ 23.4 µM) | MIC ([6]; C. diff. Strain no. 19681, Table 4): 1 mg/L (≈ 5.84 µM) | MIC ([6]; C. diff. Strain no. 19683, Table 4): 2 mg/L (≈ 11.7 µM) | MIC ([6]; C. diff. Strain no. 19687, Table 4): 4 mg/L (≈ 23.4 µM) | MIC ([6]; C. diff. Strain no. 20066, Table 4): 4 mg/L (≈ 23.4 µM) | MIC ([6]; C. diff. Strain no. 20152, Table 4): 1 mg/L (≈ 5.84 µM) | MIC ([6]; C. diff. Strain no. 20307, Table 4): 0.5 mg/L (≈ 2.92 µM) | MIC ([6]; C. diff. Strain no. 20494, Table 4): 1 mg/L (≈ 5.84 µM) | MIC ([6]; C. diff. Strain no. 20680, Table 4): 4 mg/L (≈ 23.4 µM) | MIC ([6]; C. diff. Strain no. 20934, Table 4): 1 mg/L (≈ 5.84 µM) | MIC ([6]; C. diff. Strain no. 21099, Table 4): 2 mg/L (≈ 11.7 µM) | MIC ([6]; C. diff., Micromyx Number 3579, Table 2): 0.5 mg/L (≈ 2.92 µM) | MIC ([6]; C. diff., Micromyx Number 3580, Table 2): 0.5 mg/L (≈ 2.92 µM) | MIC ([6]; C. diff., Micromyx Number 3581, Table 2): 0.5 mg/L (≈ 2.92 µM) | MIC ([6]; C. diff., Micromyx Number 3582 (ATCC strain), Table 2): 0.5 mg/L (≈ 2.92 µM) | MIC ([6]; C. diff., Strain no. 3580, Table 3): 1 mg/L (≈ 5.84 µM) | MIC ([6]; C. diff., Strain no. 3581, Table 3): 1 mg/L (≈ 5.84 µM) | MIC ([6]; C. diff., Strain no. 3582, Table 3): 0.5 mg/L (≈ 2.92 µM) | MIC ([6]; C. diff., Strain no. 3584, Table 3): 0.5 mg/L (≈ 2.92 µM) | MIC ([6]; C. diff., Strain no. 3585, Table 3): 1 mg/L (≈ 5.84 µM) | MIC ([6]; C. diff., Strain no. 3586, Table 3): 0.12 mg/L (≈ 0.701 µM) | MIC ([6]; C. diff., Strain no. 3587, Table 3): 1 mg/L (≈ 5.84 µM) | MIC ([6]; C. diff., Strain no. 3588, Table 3): 0.5 mg/L (≈ 2.92 µM) | MIC ([6]; C. diff., Strain no. 3589, Table 3): 2 mg/L (≈ 11.7 µM) | MIC ([6]; C. diff., Strain no. 4381 (ATCC strain), Table 3): 0.5 mg/L (≈ 2.92 µM) | MIC ([6]; C. difficile, Micromyx Number 1209, Table 1): 0.5 mg/L (≈ 2.92 µM) | MIC ([6]; C. difficile, Micromyx Number 3579, Table 1): 0.25 mg/L (≈ 1.46 µM) | MIC ([6]; C. difficile, Micromyx Number 3580, Table 1): 0.5 mg/L (≈ 2.92 µM) | MIC ([6]; C. difficile, Micromyx Number 3581, Table 1): 1 mg/L (≈ 5.84 µM) | MIC ([6]; C. difficile, Micromyx Number 3582, Table 1): 0.25 mg/L (≈ 1.46 µM) | MIC ([6]; C. difficile, Micromyx Number 3584, Table 1): 0.5 mg/L (≈ 2.92 µM) | MIC ([6]; C. difficile, Micromyx Number 3585, Table 1): 0.5 mg/L (≈ 2.92 µM) | MIC ([6]; C. difficile, Micromyx Number 3586, Table 1): 0.5 mg/L (≈ 2.92 µM) | MIC ([6]; C. difficile, Micromyx Number 3587, Table 1): 1 mg/L (≈ 5.84 µM) | MIC ([6]; C. difficile, Micromyx Number 3588, Table 1): 0.5 mg/L (≈ 2.92 µM) | MIC ([6]; C. difficile, Micromyx Number 3589, Table 1): 1 mg/L (≈ 5.84 µM) | MIC ([6]; C. difficile, Micromyx Number 3590, Table 1): 0.5 mg/L (≈ 2.92 µM) | MIC ([6]; C. difficile, Micromyx Number 3591, Table 1): 0.5 mg/L (≈ 2.92 µM) | MIC ([6]; C. difficile, Micromyx Number 3593, Table 1): 0.5 mg/L (≈ 2.92 µM) | MIC ([6]; C. difficile, Micromyx Number 3594, Table 1): 1 mg/L (≈ 5.84 µM) | MIC ([6]; C. difficile, Micromyx Number 3595, Table 1): 1 mg/L (≈ 5.84 µM) | MIC ([6]; C. difficile, Micromyx Number 4381 (ATCC strain), Table 1): 0.5 mg/L (≈ 2.92 µM) | MIC ([7]; Bi. Longum, Strain no. 3968 (ATCC strain), Table 3): 4 mg/L (≈ 23.4 µM) | MIC ([7]; Bifidobacterium longum, Bi. longum, Micromyx Number 3968, Table 1, read-out: MIC): 4 mg/L (≈ 23.4 µM)
SMILES: Cc1ncc([N+](=O)[O-])n1CCO [metronidazole, reference compound]
